Measured values reported in patent US11071300B2, “Pesticidally active pyrazole derivatives” (SYNGENTA PARTICIPATIONS AG, priority 2017, dated 2021).
Like-named read-outs stand apart in the source and are kept apart here.

Key:
Format in all cases: in vivo
Plutella xylostella = Plutella xylostella (diamond back moth) artificial diet test; settings: 120 h, read-out: control (mortality and growth inhibition)
Procedure: Plutella xylostella (Diamond Back Moth):
24-well microtiter plates with artificial diet were treated with aqueous test solutions prepared from 10′000 ppm DMSO stock solutions by pipetting. After drying, the plates were infested with L2 larvae (10 to 15 per well). The samples were assessed for mortality and growth inhibition in comparison to untreated samples 5 days after infestation.

Myzus persicae = Myzus persicae (green peach aphid) leaf disc test; settings: foliar, 144 h, application rate 200 ppm, sunflower leaf discs sprayed, mixed ages, 6 DAT, read-out: control (mortality)
Procedure: Myzus persicae (Green Peach Aphid):
Sunflower leaf discs were placed on agar in a 24-well microtiter plate and sprayed with test solutions at an application rate of 200 ppm. After drying, the leaf discs were infested with an aphid population of mixed ages. After an incubation period of 6 DAT, samples were checked for mortality.

Spodoptera littoralis = Spodoptera littoralis (Egyptian cotton leaf worm) leaf disc test; settings: foliar, 72 h, application rate 200 ppm, cotton leaf discs sprayed, L1 larvae, 3 days after infestation, read-out: control (at least one of mortality, anti-feedant effect, growth inhibition)
Procedure: Spodoptera littoralis (Egyptian Cotton Leaf Worm)
Cotton leaf discs were placed on agar in 24-well microtiter plates and sprayed with aqueous test solutions prepared from 10′000 ppm DMSO stock solutions. After drying the leaf discs were infested with five L1 larvae. The samples were assessed for mortality, anti-feedant effect, and growth inhibition in comparison to untreated samples 3 days after infestation. Control of Spodoptera littoralis by a test sample is when at least one of mortality, anti-feedant effect, and growth inhibition is higher than the untreated sample.

Euschistus heros = Euschistus heros (neotropical brown stink bug) soybean leaf test; settings: 120 h, read-out: control (mortality and growth inhibition)
Procedure: Euschistus heros (Neotropical Brown Stink Bug):
Soybean leaves on agar in 24-well microtiter plates were sprayed with aqueous test solutions prepared from 10′000 ppm DMSO stock solutions. After drying the leaves were infested with N2 nymphs. The samples were assessed for mortality and growth inhibition in comparison to untreated samples 5 days after infestation.

Tetranychus urticae = Tetranychus urticae (two-spotted spider mite) leaf disc test; settings: foliar, 192 h, application rate 200 ppm, bean leaf discs sprayed, 8 days after infestation, read-out: control (mortality on mixed population, mobile stages)
Procedure: Tetranychus urticae (Two-Spotted Spider Mite):
Bean leaf discs on agar in 24-well microtiter plates were sprayed with aqueous test solutions prepared from 10′000 ppm DMSO stock solutions. After drying the leaf discs were infested with a mite population of mixed ages. The samples were assessed for mortality on mixed population (mobile stages) 8 days after infestation.

Diabrotica Balteata = assay: Diabrotica balteata (corn root worm) maize sprout test; settings: 96 h, read-out: control (mortality and growth inhibition)
Procedure: Diabrotica Balteata, (Corn Root Worm)
Maize sprouts, placed on an agar layer in 24-well microtiter plates were treated with aqueous test solutions prepared from 10′000 ppm DMSO stock solutions by spraying. After drying, the plates were infested with L2 larvae (6 to 10 per well). The samples were assessed for mortality and growth inhibition in comparison to untreated samples 4 days after infestation.

Thrips tabaci = Thrips tabaci (onion thrips) leaf disc test; settings: foliar, 144 h, read-out: control (mortality)
Procedure: Thrips tabaci (Onion Thrips):
Sunflower leaf discs were placed on agar in 24-well microtiter plates and sprayed with aqueous test solutions prepared from 10′000 ppm DMSO stock solutions. After drying the leaf discs were infested with a thrips population of mixed ages. The samples were assessed for mortality 6 days after infestation.

[1] = application rate 200 ppm, artificial diet, L2 larvae, 5 days after infestation
[2] = application rate 200 ppm, soybean leaves sprayed, N2 nymphs, 5 days after infestation
[3] = application rate 200 ppm, maize sprouts sprayed, L2 larvae, 4 days after infestation
[4] = application rate 200 ppm, sunflower leaf discs sprayed, mixed ages, 6 days after infestation

CCN(C(=O)c1cc(-c2cc(-c3c(C(F)(F)F)c(OS(=O)(=O)C(F)(C(F)(F)F)C(F)(F)F)nn3C)no2)ccc1Cl)C1(C#N)CC1 [Compound 38, [5-[5-[4-chloro-3-[(1-cyanocyclopropyl)-ethyl-carbamoyl]phenyl]isoxazol-3-yl]-1-methyl-4-(trifluoromethyl)pyrazol-3-yl] 1,1,1,2,3,3,3-heptafluoropropane-2-sulfonate]
≥ 80%: mortality at 200 ppm (Plutella xylostella; [1]) | mortality at 200 ppm (Myzus persicae) | percent control (mortality, anti-feedant effect or growth inhibition) at 200 ppm (Spodoptera littoralis) | mortality at 200 ppm (Euschistus heros; [2]) | mortality at 200 ppm (Tetranychus urticae)

CN(C(=O)c1cc(-c2cnn(-c3c(C(F)(F)F)c(OS(=O)(=O)C(F)(F)C(F)(F)C(F)(F)C(F)(F)F)nn3C)c2)ccc1Cl)C1(C#N)CC1 [Compound 6, [5-[4-[4-chloro-3-[(1-cyanocyclopropyl)-methyl-carbamoyl]phenyl]pyrazol-1-yl]-1-methyl-4-(trifluoromethyl)pyrazol-3-yl] 1,1,2,2,3,3,4,4,4-nonafluorobutane-1-sulfonate]
≥ 80%: mortality at 200 ppm (Plutella xylostella) | mortality at 200 ppm (Diabrotica Balteata) | mortality at 200 ppm (Thrips tabaci) | percent control (mortality, anti-feedant effect or growth inhibition) at 200 ppm (Spodoptera littoralis) | mortality at 200 ppm (Euschistus heros)

Cn1nc(OS(=O)(=O)C(F)(C(F)(F)F)C(F)(F)F)c(C(F)(F)F)c1-n1cc(-c2ccc(Cl)c(C(=O)NC3(C(F)(F)F)CC3)c2)cn1 [Compound 65, [5-[4-[4-chloro-3-[[1-(trifluoromethyl)cyclopropyl]carbamoyl]phenyl]pyrazol-1-yl]-1-methyl-4-(trifluoromethyl)pyrazol-3-yl] 1,1,1,2,3,3,3-heptafluoropropane-2-sulfonate]
≥ 80%: mortality at 200 ppm (Plutella xylostella; [1]) | percent control (mortality, anti-feedant effect or growth inhibition) at 200 ppm (Spodoptera littoralis) | mortality at 200 ppm (Euschistus heros; [2]) | mortality at 200 ppm (Tetranychus urticae)

CCOCN(C(=O)c1cc(-c2cnn(-c3c(C(F)(F)F)c(OS(=O)(=O)C(F)(C(F)(F)F)C(F)(F)F)nn3C)c2)ccc1Cl)C1(C#N)CC1 [Compound 47, [5-[4-[4-chloro-3-[(1-cyanocyclopropyl)-(ethoxymethyl)carbamoyl]phenyl]pyrazol-1-yl]-1-methyl-4-(trifluoromethyl)pyrazol-3-yl] 1,1,1,2,3,3,3-heptafluoropropane-2-sulfonate]
≥ 80%: mortality at 200 ppm (Plutella xylostella; [1]) | mortality at 200 ppm (Diabrotica Balteata; [3]) | mortality at 200 ppm (Myzus persicae) | mortality at 200 ppm (Thrips tabaci; [4]) | percent control (mortality, anti-feedant effect or growth inhibition) at 200 ppm (Spodoptera littoralis) | mortality at 200 ppm (Euschistus heros; [2])

Cn1nc(OS(=O)(=O)C(F)(F)C(F)(F)F)c(C(F)(F)F)c1-n1cc(-c2ccc(Cl)c(C(=O)NC3(C#N)CC3)c2)cn1 [Compound 1, [5-[4-[4-chloro-3-[(1-cyanocyclopropyl)carbamoyl]phenyl]pyrazol-1-yl]-1-methyl-4-(trifluoromethyl)pyrazol-3-yl] 1,1,2,2,2-pentafluoroethanesulfonate]
≥ 80%: mortality at 200 ppm (Plutella xylostella; [1]) | mortality at 200 ppm (Diabrotica Balteata; [3]) | percent control (mortality, anti-feedant effect or growth inhibition) at 200 ppm (Spodoptera littoralis) | mortality at 200 ppm (Euschistus heros; [2]) | mortality at 200 ppm (Tetranychus urticae)

Cn1nc(OS(=O)(=O)C(F)(C(F)(F)F)C(F)(F)F)c(C(F)(F)F)c1-n1cc(-c2ccc(Cl)c(C(=O)N[C@H]3C[C@@H]3C#N)c2)cn1 (racemic) [Compound 69, (rac)-[5-[4-[4-chloro-3-[[(1S,2S)-2-cyanocyclopropyl]carbamoyl]phenyl]pyrazol-1-yl]-1-methyl-4-(trifluoromethyl)pyrazol-3-yl] 1,1,1,2,3,3,3-heptafluoropropane-2-sulfonate]
≥ 80%: mortality at 200 ppm (Plutella xylostella; [1]) | mortality at 200 ppm (Myzus persicae) | percent control (mortality, anti-feedant effect or growth inhibition) at 200 ppm (Spodoptera littoralis) | mortality at 200 ppm (Euschistus heros; [2]) | mortality at 200 ppm (Tetranychus urticae)

CCN(C(=O)c1cc(-c2cnn(-c3c(C(F)(F)F)c(OS(=O)(=O)C(F)(C(F)(F)F)C(F)(F)F)nn3C)c2)cnc1Cl)C1(C#N)CC1 [Compound 26, [5-[4-[6-chloro-5-[(1-cyanocyclopropyl)-ethyl-carbamoyl]-3-pyridyl]pyrazol-1-yl]-1-methyl-4-(trifluoromethyl)pyrazol-3-yl] 1,1,1,2,3,3,3-heptafluoropropane-2-sulfonate]
≥ 80%: mortality at 200 ppm (Plutella xylostella; [1]) | mortality at 200 ppm (Diabrotica Balteata; [3]) | mortality at 200 ppm (Myzus persicae) | mortality at 200 ppm (Thrips tabaci; [4]) | percent control (mortality, anti-feedant effect or growth inhibition) at 200 ppm (Spodoptera littoralis) | mortality at 200 ppm (Tetranychus urticae)

Cn1nc(OS(=O)(=O)C(F)(C(F)(F)F)C(F)(F)F)c(C(F)(F)F)c1-n1cc(-c2ccc(Cl)c(C(=O)NC3(CC#N)CC3)c2)cn1 [Compound 68, [5-[4-[4-chloro-3-[[1-(cyanomethyl)cyclopropyl]carbamoyl]phenyl]pyrazol-1-yl]-1-methyl-4-(trifluoromethyl)pyrazol-3-yl] 1,1,1,2,3,3,3-heptafluoropropane-2-sulfonate]
≥ 80%: mortality at 200 ppm (Plutella xylostella; [1]) | percent control (mortality, anti-feedant effect or growth inhibition) at 200 ppm (Spodoptera littoralis) | mortality at 200 ppm (Euschistus heros; [2]) | mortality at 200 ppm (Tetranychus urticae)

CCN(C(=O)c1cc(-c2cnn(-c3c(C(F)(F)F)c(OS(=O)(=O)C(F)(F)C(F)(F)C(F)(F)C(F)(F)F)nn3C)c2)cnc1Cl)C1(C#N)CC1 [Compound 32, [5-[4-[6-chloro-5-[(1-cyanocyclopropyl)-ethyl-carbamoyl]-3-pyridyl]pyrazol-1-yl]-1-methyl-4-(trifluoromethyl)pyrazol-3-yl] 1,1,2,2,3,3,4,4,4-nonafluorobutane-1-sulfonate]
≥ 80%: mortality at 200 ppm (Plutella xylostella) | mortality at 200 ppm (Diabrotica Balteata) | mortality at 200 ppm (Thrips tabaci) | percent control (mortality, anti-feedant effect or growth inhibition) at 200 ppm (Spodoptera littoralis) | mortality at 200 ppm (Euschistus heros)

Cn1nc(OS(=O)(=O)C(F)(F)C(F)(F)Cl)c(C(F)(F)F)c1-n1cc(-c2ccc(Cl)c(C(=O)NC3(C#N)CC3)c2)cn1 [Compound 8, [5-[4-[4-chloro-3-[(1-cyanocyclopropyl)carbamoyl]phenyl]pyrazol-1-yl]-1-methyl-4-(trifluoromethyl)pyrazol-3-yl] 2-chloro-1,1,2,2-tetrafluoro-ethanesulfonate]
≥ 80%: mortality at 200 ppm (Plutella xylostella; [1]) | mortality at 200 ppm (Diabrotica Balteata; [3]) | mortality at 200 ppm (Myzus persicae) | mortality at 200 ppm (Thrips tabaci; [4]) | percent control (mortality, anti-feedant effect or growth inhibition) at 200 ppm (Spodoptera littoralis) | mortality at 200 ppm (Tetranychus urticae)

CN(C(=O)c1cc(-c2cnn(-c3c(C(F)(F)F)c(OS(=O)(=O)C(F)(C(F)(F)F)C(F)(F)F)nn3C)c2)ccc1Cl)C1CC1 [Compound 17, [5-[4-[4-chloro-3-[cyclopropyl(methyl)carbamoyl]phenyl]pyrazol-1-yl]-1-methyl-4-(trifluoromethyl)pyrazol-3-yl] 1,1,1,2,3,3,3-heptafluoropropane-2-sulfonate]
≥ 80%: mortality at 200 ppm (Plutella xylostella; [1]) | mortality at 200 ppm (Diabrotica Balteata; [3]) | mortality at 200 ppm (Myzus persicae) | mortality at 200 ppm (Thrips tabaci; [4]) | percent control (mortality, anti-feedant effect or growth inhibition) at 200 ppm (Spodoptera littoralis) | mortality at 200 ppm (Tetranychus urticae)
